Key:
A2A adenosine receptor = target: T1, A2A adenosine receptor (Sus scrofa, UniProt K9IW67); assay: Affinity for the A2A receptor in a pig striatum membrane prep (displacement of tritiated ZM 241385); type: binding; details: pig striatal membranes, [3H]ZM 241385 2 nM, 23° C. 2h, Ki from IC50
T1 construct: from tissue; host or cells: pig striatum membranes
Experimental: Compositions of this invention were assayed to determine their affinity for the A2A receptor in a pig striatum membrane prep. 0.2 mg of pig striatal membranes were treated with adenosine deaminase and 50 mM Tris buffer (pH=7.4) followed by mixing. […] After incubation at 23° C. for 2h, the solutions were filtered using a membrane harvester using multiple washing of the membranes (3×). The filter disks were counted in scintillation cocktail affording the amount of displacement of tritiated ZM by the competitive binding compositions of this invention. Greater than a 5 point curve was used to generate IC50's and the number of experiments (n) is indicated in the column marked in Tables 3-4 below. The Chang-Prusoff equation was used to generate Ki's from the IC50 data.

A1 = target: T2, A1 (Homo sapiens, UniProt P30542); assay: Affinity for the A1 receptor (Ki column, no method described); type: binding; details: compounds 1a-5a table
T2 sequence (P30542 1-326): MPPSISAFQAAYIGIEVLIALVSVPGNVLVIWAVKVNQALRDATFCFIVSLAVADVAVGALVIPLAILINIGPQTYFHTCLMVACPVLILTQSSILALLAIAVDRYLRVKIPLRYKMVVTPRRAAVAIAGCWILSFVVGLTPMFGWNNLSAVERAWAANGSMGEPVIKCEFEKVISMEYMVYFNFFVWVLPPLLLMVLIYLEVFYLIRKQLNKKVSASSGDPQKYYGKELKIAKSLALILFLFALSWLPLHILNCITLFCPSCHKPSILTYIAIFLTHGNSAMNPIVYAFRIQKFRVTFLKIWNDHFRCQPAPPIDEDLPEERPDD

T1 sequence (K9IW67 1-409): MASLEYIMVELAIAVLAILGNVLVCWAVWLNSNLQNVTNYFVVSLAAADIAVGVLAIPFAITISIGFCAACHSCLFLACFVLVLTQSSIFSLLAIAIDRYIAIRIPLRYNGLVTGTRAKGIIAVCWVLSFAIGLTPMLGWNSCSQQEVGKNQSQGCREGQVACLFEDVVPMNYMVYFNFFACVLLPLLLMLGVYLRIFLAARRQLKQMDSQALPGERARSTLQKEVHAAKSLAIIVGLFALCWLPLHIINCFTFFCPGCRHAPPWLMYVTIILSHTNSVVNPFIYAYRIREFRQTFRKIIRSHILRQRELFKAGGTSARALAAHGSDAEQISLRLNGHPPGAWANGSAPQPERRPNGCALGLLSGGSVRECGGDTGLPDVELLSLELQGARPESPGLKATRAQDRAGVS

In the case of `CCNC(=O)[C@H]1O[C@@H](n2cnc3c(N)nc(SCc4ccccc4)nc32)[C@H](O)[C@@H]1O` [Compound 2a, [(2S, 3S, 4R, 5R)-5-(6-amino-2-(phenylmethylthio)purin-9-yl)-3,4-dihydroxyoxolan-2yl]-N-ethylcarboxamide], the Ki (A2A adenosine receptor; compounds 1a-5a) is reported as over 10000 nM and the melting point is reported as 245 °C (dec.).

Compound `Nc1nc(SCc2ccccc2)nc2c1ncn2[C@@H]1O[C@H](CO)[C@@H](O)[C@H]1O` [Compound 2, (4S, 2R. 3R, 5R)-2-(6-amino-2-phenylmethylthiopurin-9-yl)-5-(hydroxymethyl)-oxolane-3,4-diol] has a Ki (A2A adenosine receptor; Table 3, compounds 1-7) of 9540 nM.

With `Nc1nc(SCCCc2ccccc2)nc2c1ncn2[C@@H]1O[C@H](CO)[C@@H](O)[C@H]1O` [Compound 4, (4S, 2R, 3R, 5R)-2-(6-amino-2-phenylpropylthiopurin-9-yl)-5-(hydroxymethyl)oxolane-3,4-diol] the Ki (A2A adenosine receptor; Table 3, compounds 1-7) was over 10000 nM.

In the case of `CCCCCSc1nc(N)c2ncn([C@@H]3O[C@H](C(=O)NCC)[C@@H](O)[C@H]3O)c2n1` [Compound 5a, [(2S, 3S, 4R, 5R)-5-(6-amino-2-pentylthiopurin-9-yl)-3,4-dihydroxyoxolan-2-yl]-N-ethylcarboxamide], the Ki (A2A adenosine receptor; compounds 1a-5a) is reported as 4310 nM and the melting point is reported as > 270 °C (dec.).

Work on `CCNC(=O)[C@H]1O[C@@H](n2cnc3c(N)nc(SCCc4ccccc4)nc32)[C@H](O)[C@@H]1O` [Compound 3a, [(2S, 3S, 4R, 5R)-5-(6-amino-2-(phenylethylthio)purin-9-yl)-3,4-dihydroxyoxolan-2-yl]-N-ethylcarboxamide] yielded a Ki (A2A adenosine receptor; compounds 1a-5a) of 85 nM, a melting point of 97 to 99 °C and a Ki (A1) of over 10000 nM.

In the case of `CCNC(=O)[C@H]1O[C@@H](n2cnc3c(N)nc(SCCCc4ccccc4)nc32)[C@H](O)[C@@H]1O` [Compound 4a, [(2S, 3S, 4R, 5R)-5-(6-amino-2-(phenylpropylthio)purin-9-yl)-3,4-dihydroxyoxolan-2-yl]-N-ethylcarboxamide], the Ki (A2A adenosine receptor; compounds 1a-5a) is reported as 6280 nM and the melting point is reported as 185 to 188 °C.

`Nc1nc(Sc2ccccc2)nc2c1ncn2[C@@H]1O[C@H](CO)[C@@H](O)[C@H]1O` [Compound 1, (4S, 2R, 3R, 5R)-2-(6-amino-2-phenylthiopurin-9-yl)-5-(hydroxymethyl)oxolane-3,4-diol] showed a Ki (A2A adenosine receptor; Table 3, compounds 1-7) of over 10000 nM and a melting point of 137 to 139 °C.

With `CCCCCSc1nc(N)c2ncn([C@@H]3O[C@H](CO)[C@@H](O)[C@H]3O)c2n1` [Compound 5, (4S, 2R,3R, 5R)-2-(6-amino-2-pentyltiopurin-9-yl)-5-(hydroxymethymethyl)oxolane-3,4-diol] the Ki (A2A adenosine receptor; Table 3, compounds 1-7) was over 10000 nM and the melting point was 177 °C (dec.).

With `Nc1nc(SC2CCCC2)nc2c1ncn2[C@@H]1O[C@H](CO)[C@@H](O)[C@H]1O` [Compound 7, (4S, 2R, 3R, 5R)-2-(6-amino-2-cyclopentylthiopurin-9-yl)-5-(hydroxymethyl)oxolane-3,4-diol] the Ki (A2A adenosine receptor; Table 3, compounds 1-7) was over 10000 nM and the melting point was 213 °C (dec.).

`Nc1nc(SCCCCO)nc2c1ncn2[C@@H]1O[C@H](CO)[C@@H](O)[C@H]1O` [Compound 6, (4S, 2R, 3R, 5R)-2-(6-amino-2-(4-hydroxybutylthio)purin-9-yl)-5-(hydroxymethyl)oxolane-3,4-diol] showed a Ki (A2A adenosine receptor; Table 3, compounds 1-7) of over 100000 nM and a melting point of 88 to 90 °C.

Compound `CCNC(=O)[C@H]1O[C@@H](n2cnc3c(N)nc(Sc4ccccc4)nc32)[C@H](O)[C@@H]1O` [Compound 1a, [(2S, 3S, 4R, 5R)-5-(6-amino-2-phenylthiopurin-9-yl)-3,4-dihydroxyoxolan-2yl]-N -ethylcarboxamide] has a Ki (A2A adenosine receptor; compounds 1a-5a) of 6120 nM and a melting point of 122 to 125 °C.

From patent publication US20010051612A1, “2-Thioether A2A receptor agonists” (priority 2000, published 2001)
